Assay results as given in patent US20250114345A1, “COMPOUNDS AND COMPOSITIONS AS CBP/P300 DEGRADERS AND USES THEREOF” (Oncopia Therapeutics, Inc. d/b/a/ SK Life Science Labs, priority 2023, published 2025).

How the values were obtained:
p300 = target: T1, p300 (Homo sapiens, UniProt Q09472); test: P300 degradation, HiBit technology in A549 P300 HiBit cells (2 h); format: cell-based; conditions: 2 hrs post treatment; for Dmax: A549, A549 P300 HiBit cells; for DC50: A549 P300 HiBit cells
T1 construct: host or cells: A549 P300 HiBit cells
T1 sequence (Q09472 whole entry): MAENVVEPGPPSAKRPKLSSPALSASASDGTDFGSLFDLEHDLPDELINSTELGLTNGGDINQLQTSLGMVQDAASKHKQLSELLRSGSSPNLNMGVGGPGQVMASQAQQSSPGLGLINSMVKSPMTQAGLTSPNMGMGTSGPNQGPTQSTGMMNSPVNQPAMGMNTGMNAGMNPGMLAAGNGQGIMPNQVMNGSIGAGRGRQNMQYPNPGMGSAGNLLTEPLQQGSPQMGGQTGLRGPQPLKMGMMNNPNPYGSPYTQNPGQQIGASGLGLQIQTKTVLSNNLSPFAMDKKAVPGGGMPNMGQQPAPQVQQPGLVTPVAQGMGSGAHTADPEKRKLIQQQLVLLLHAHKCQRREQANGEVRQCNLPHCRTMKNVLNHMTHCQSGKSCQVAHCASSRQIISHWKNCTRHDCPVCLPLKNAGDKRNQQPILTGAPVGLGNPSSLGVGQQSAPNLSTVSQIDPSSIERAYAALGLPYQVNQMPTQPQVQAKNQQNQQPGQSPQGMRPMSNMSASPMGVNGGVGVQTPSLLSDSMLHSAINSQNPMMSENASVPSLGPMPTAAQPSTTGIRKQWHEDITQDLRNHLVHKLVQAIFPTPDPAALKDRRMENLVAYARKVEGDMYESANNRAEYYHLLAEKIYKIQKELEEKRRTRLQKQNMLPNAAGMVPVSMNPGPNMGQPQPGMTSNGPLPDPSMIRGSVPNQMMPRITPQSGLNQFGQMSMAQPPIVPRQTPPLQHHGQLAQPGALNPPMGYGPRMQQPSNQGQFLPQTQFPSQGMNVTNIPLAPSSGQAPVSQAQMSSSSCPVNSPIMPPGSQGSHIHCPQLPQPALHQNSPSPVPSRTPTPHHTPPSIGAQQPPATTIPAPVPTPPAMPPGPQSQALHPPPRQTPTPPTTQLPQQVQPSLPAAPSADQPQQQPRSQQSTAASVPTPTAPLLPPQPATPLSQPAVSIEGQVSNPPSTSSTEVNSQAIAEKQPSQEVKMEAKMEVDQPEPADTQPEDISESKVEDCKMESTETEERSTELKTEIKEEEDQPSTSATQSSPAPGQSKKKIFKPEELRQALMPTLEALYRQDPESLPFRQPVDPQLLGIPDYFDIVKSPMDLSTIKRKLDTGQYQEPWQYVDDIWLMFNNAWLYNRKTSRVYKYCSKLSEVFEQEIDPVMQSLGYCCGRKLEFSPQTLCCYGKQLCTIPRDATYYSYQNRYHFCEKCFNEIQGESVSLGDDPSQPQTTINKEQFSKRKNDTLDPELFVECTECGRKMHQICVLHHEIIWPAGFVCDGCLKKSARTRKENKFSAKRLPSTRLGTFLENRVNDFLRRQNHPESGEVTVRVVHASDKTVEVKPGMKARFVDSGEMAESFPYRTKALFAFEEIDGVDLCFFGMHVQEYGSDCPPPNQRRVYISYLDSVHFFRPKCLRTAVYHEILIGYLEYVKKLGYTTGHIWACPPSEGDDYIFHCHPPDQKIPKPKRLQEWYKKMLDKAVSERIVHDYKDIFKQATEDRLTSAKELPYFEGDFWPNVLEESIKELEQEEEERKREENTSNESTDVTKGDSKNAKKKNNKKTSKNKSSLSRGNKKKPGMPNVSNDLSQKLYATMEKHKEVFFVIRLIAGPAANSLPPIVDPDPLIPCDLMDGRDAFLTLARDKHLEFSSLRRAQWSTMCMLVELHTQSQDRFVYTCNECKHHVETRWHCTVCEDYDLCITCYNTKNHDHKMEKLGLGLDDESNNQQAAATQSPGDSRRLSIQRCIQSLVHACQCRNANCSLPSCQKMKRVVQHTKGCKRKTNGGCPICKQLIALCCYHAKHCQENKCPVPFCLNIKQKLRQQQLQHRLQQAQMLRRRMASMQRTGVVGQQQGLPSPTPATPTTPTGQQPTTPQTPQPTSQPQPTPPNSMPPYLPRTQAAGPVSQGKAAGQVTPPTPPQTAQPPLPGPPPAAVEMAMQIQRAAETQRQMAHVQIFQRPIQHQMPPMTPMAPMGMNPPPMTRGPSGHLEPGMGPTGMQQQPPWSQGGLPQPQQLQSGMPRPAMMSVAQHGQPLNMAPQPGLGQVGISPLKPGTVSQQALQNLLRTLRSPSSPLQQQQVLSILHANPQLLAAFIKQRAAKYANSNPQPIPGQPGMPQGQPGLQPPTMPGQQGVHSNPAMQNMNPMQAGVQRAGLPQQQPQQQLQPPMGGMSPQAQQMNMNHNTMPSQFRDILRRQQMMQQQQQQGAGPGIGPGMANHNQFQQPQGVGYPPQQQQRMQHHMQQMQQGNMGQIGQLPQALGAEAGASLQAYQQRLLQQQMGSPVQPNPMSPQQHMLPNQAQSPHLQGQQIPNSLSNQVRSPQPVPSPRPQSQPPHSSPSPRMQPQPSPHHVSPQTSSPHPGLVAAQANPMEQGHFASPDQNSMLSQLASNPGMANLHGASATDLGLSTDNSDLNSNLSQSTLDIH
Method in brief: (§1)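 Degradation potency and Dmax came from HiBiT luminescence in tagged A549 cells treated with serially diluted compound (DMSO stocks at 10 mM) after overnight equilibration in F-12K with 10% heat-inactivated FBS.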

CBP = target: T2, CBP (Homo sapiens, UniProt Q92793); test: CBP degradation, HiBit technology in A549 CBP HiBit cells (24 h); format: cell-based; conditions: 24 hrs post treatment
T2 construct: host or cells: A549 CBP HiBit cells
T2 sequence (Q92793 whole entry): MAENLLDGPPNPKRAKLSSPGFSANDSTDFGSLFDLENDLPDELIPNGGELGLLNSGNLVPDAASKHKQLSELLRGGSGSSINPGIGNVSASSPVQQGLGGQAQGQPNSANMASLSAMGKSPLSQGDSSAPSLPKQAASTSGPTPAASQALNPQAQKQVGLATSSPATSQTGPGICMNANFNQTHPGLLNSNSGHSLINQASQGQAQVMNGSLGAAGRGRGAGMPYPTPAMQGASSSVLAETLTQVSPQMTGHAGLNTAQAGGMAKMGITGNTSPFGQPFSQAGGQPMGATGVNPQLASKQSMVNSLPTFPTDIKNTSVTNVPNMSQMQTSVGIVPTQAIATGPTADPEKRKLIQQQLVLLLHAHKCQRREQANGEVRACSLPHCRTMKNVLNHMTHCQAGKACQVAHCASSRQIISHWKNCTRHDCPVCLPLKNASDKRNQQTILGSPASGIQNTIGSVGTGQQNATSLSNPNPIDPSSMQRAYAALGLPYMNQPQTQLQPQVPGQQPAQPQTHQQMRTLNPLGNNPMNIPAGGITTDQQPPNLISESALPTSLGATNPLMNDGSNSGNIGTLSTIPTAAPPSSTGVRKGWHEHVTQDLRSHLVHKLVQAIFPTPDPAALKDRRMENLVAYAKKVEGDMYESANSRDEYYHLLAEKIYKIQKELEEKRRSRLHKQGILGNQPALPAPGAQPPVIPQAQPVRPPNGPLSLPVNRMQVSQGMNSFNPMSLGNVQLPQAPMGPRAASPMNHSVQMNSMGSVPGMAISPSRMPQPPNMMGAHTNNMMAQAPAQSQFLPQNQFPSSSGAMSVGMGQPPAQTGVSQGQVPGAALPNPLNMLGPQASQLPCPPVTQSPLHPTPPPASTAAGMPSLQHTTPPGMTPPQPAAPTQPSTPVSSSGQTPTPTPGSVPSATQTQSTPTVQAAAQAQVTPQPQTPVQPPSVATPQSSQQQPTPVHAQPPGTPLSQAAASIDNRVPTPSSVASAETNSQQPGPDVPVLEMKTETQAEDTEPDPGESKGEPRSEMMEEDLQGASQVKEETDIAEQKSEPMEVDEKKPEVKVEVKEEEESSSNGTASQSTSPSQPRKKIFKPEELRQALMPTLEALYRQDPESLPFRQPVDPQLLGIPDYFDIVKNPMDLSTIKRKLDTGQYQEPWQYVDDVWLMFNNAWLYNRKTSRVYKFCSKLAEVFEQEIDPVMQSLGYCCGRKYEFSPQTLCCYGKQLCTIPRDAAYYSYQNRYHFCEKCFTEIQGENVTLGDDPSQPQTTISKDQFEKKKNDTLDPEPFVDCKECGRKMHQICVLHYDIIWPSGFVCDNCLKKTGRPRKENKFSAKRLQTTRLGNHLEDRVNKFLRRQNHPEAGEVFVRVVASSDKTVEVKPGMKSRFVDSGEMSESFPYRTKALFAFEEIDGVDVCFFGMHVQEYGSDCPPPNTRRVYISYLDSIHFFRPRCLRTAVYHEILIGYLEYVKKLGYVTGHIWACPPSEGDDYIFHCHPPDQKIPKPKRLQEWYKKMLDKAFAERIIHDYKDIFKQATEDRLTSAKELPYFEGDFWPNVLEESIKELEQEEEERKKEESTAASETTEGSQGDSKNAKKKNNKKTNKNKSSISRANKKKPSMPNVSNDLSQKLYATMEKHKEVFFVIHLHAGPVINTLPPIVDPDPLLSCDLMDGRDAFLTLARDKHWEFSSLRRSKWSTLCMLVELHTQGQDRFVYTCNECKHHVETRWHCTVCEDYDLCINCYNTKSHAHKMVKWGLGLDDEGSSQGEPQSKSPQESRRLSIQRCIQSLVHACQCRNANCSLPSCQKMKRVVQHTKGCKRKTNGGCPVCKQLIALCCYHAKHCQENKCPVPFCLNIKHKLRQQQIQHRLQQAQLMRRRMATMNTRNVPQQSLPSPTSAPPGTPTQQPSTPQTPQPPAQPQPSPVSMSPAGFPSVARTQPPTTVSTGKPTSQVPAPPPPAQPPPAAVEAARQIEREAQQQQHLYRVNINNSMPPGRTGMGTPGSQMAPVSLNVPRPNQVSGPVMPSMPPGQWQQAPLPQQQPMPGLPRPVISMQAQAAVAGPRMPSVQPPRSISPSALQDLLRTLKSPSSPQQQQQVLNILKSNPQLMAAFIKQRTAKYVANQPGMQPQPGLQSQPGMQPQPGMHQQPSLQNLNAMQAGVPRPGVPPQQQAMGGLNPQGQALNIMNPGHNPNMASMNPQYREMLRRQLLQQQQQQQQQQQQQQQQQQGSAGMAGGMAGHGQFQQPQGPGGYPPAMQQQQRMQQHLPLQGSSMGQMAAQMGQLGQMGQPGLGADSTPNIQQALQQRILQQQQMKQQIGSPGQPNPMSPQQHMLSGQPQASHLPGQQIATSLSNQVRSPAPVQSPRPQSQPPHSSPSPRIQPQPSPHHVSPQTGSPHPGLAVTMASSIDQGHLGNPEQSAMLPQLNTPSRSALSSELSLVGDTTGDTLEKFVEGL
Method in brief: as §1

Compound	Dmax (p300)	DC50 (p300)	DC50 (CBP)	Dmax (CBP)
Cc1cc2c(N3CCCc4nc(-c5ccc(C(=O)NCC#Cc6ccc7occ(C8CCC(=O)NC8=O)c7c6)nc5)ncc43)cccc2n(C)c1=O (centres unmarked) [Example B110, 5-(5-(1,3-dimethyl-2-oxo-1,2-dihydroquinolin-5-yl)-5,6,7,8-tetrahydropyrido[3,2-d]pyrimidin-2-yl)-N-(3-(3-(2,6-dioxopiperidin-3-yl)benzofuran-5-yl)prop-2-yn-1-yl)picolinamide]	> 80%	1 to 9.9 nM	> 1000 nM	< 20%
CN1Cc2c(-c3cccc4cc(-c5ccc(C(=O)NCC#Cc6ccc7cnn(C8CCC(=O)NC8=O)c7c6)nc5)ncc34)cc(C(C)(F)F)cc2N(C)C1=O (centres unmarked) [Example B111, 5-(8-(7-(1,1-difluoroethyl)-1,3-dimethyl-2-oxo-1,2,3,4-tetrahydroquinazolin-5-yl)isoquinolin-3-yl)-N-(3-(1-(2,6-dioxopiperidin-3-yl)-1H-indazol-6-yl)prop-2-yn-1-yl)picolinamide]	–	1 to 9.9 nM	10 to 99 nM	–
COc1cc(N2CCOc3cc(-c4ccc(C(=O)NCC#Cc5ccc6occ(C7CCC(=O)NC7=O)c6c5)nc4)ncc32)c2cc(C)c(=O)n(C)c2c1 (centres unmarked) [Example B112, N-(3-(3-(2,6-dioxopiperidin-3-yl)benzofuran-5-yl)prop-2-yn-1-yl)-5-(4-(7-methoxy-1,3-dimethyl-2-oxo-1,2-dihydroquinolin-5-yl)-3,4-dihydro-2H-pyrido[4,3-b][1,4]oxazin-7-yl) picolinamide]	> 80%	< 1 nM	100 to 999 nM	< 20%
Cc1cc2c(N3CCCc4nc(-c5ccc(C(=O)NCC#Cc6ccc7occ(C8CCC(=O)NC8=O)c7c6)nc5)ncc43)nc(N3CC4CCC(C3)O4)cc2n(C)c1=O (centres unmarked) [Example B115, 5-(5-(7-(8-oxa-3-azabicyclo[3.2.1]octan-3-yl)-1,3-dimethyl-2-oxo-1,2-dihydro-1,6-naphthyridin-5-yl)-5,6,7,8-tetrahydropyrido [3,2-d]pyrimidin-2-yl)-N-(3-(3-(2,6-dioxopiperidin-3-yl)benzofuran-5-yl)prop-2-yn-1-yl)picolinamide]	60 to 79%	1 to 9.9 nM	> 1000 nM	< 20%
Cc1cc2c(N3CCCc4nc(-c5ccc(C(=O)NCC#Cc6ccc7occ(C8CCC(=O)NC8=O)c7c6)nc5)ncc43)cc(Cl)cc2n(C)c1=O (centres unmarked) [Example B119, 5-(5-(7-chloro-1,3-dimethyl-2-oxo-1,2-dihydroquinolin-5-yl)-5,6,7,8-tetrahydro[3,2-d]pyrimidin-2-yl)-N-(3-(3-(2,6-dioxopiperidin-3-yl)benzofuran-5-yl)prop-2-yn-1-yl) picolinamide]	60 to 79%	1 to 9.9 nM	> 1000 nM	< 20%
Cc1cc2c(N3CCOc4cc(-c5ccc(C(=O)NCC#Cc6ccc7occ(C8CCC(=O)NC8=O)c7c6)nc5)ncc43)cc(F)cc2n(C)c1=O (centres unmarked) [Example B123, N-(3-(3-(2,6-dioxopiperidin-3-yl)benzofuran-5-yl)prop-2-yn-1-yl)-5-(4-(7-fluoro-1,3-dimethyl-2-oxo-1,2-dihydroquinolin-5-yl)-3,4-dihydro-2H-pyrido[4,3-b][1,4]oxazin-7-yl)picolinamide]	> 80%	1 to 9.9 nM	> 1000 nM	< 20%
Cc1cc2c(-c3cn(C)c(=O)c4cc(-c5ccc(C(=O)NCC#Cc6cc7c(C8CCC(=O)NC8=O)cccc7o6)nc5)ncc34)nc(N3CCOCC3)cc2n(C)c1=O (centres unmarked) [Example B131, 5-(8-(1,3-dimethyl-7-morpholino-2-oxo-1,2-dihydro-1,6-naphthyridin-5-yl)-6-methyl-5-oxo-5,6-dihydro-2,6-naphthyridin-3-yl)-N-(3-(4-(2,6-dioxopiperidin-3-yl)benzofuran-2-yl)prop-2-yn-1-yl)picolinamide]	> 80%	1 to 9.9 nM	> 1000 nM	< 20%
Cc1cc2c(-c3cccc4cc(-c5ccc(C(=O)NCC#Cc6ccc7occ(C8CCC(=O)NC8=O)c7c6)nc5)ncc34)nc(C3CCOCC3)cc2n(C)c1=O (centres unmarked) [Example B132, 5-(8-(1,3-dimethyl-2-oxo-7-(tetrahydro-2H-pyran-4-yl)-1,2-dihydro-1,6-naphthyridin-5-yl)isoquinolin-3-yl)-N-(3-(3-(2,6-dioxo-piperidin-3-yl)benzofuran-5-yl)prop-2-yn-1-yl)picolinamide]	> 80%	1 to 9.9 nM	> 1000 nM	< 20%

Results, then the molecule that gave them:

Dmax (p300)	DC50 (p300)	DC50 (CBP)	Dmax (CBP)	Compound
> 80%	< 1 nM	100 to 999 nM	< 20%	Cc1cc2c(N3CCCc4nc(-c5ccc(C(=O)NCC#Cc6ccc7onc(C8CCC(=O)NC8=O)c7c6)nc5)ncc43)cc(C3CCOCC3)cc2n(C)c1=O (centres unmarked) [Example B108, 5-(5-(1,3-dimethyl-2-oxo-7-(tetrahydro-2H-pyran-4-yl)-1,2-dihydroquinolin-5-yl)-5,6,7,8-tetrahydropyrido[3,2-d]pyrimidin-2-yl)-N-(3-(3-(2,6-dioxopiperidin-3-yl)benzo[d]isoxazol-5-yl)prop-2-yn-1-yl)picolinamide]
> 80%	1 to 9.9 nM	100 to 999 nM	< 20%	[2H]C([2H])(C#Cc1ccc2occ(C3CCC(=O)NC3=O)c2c1)NC(=O)c1ccc(-c2ncc3c(n2)CCCN3c2cc(C3CCOCC3)cc3c2cc(C)c(=O)n3C)cn1 (centres unmarked) [Example B117, 5-(5-(1,3-dimethyl-2-oxo-7-(tetrahydro-2H-pyran-4-yl)-1,2-dihydroquinolin-5-yl)-5,6,7,8-tetrahydropyrido[3,2-d]pyrimidin-2-yl)-N-(3-(3-(2,6-dioxopiperidin-3-yl)benzofuran-5-yl)prop-2-yn-1-yl-1,1-d2)picolinamide]
> 80%	< 1 nM	1 to 9.9 nM	40 to 59%	Cc1cc2c(N3CCN(C)c4nc(-c5ccc(C(=O)NCC#Cc6ccc7occ(C8CCC(=O)NC8=O)c7c6)nc5)ncc43)cc(C3CCOCC3)cc2n(C)c1=O (centres unmarked) [Example B124, 5-(5-(1,3-dimethyl-2-oxo-7-(tetrahydro-2H-pyran-4-yl)-1,2-dihydroquinolin-5-yl)-8-methyl-5,6,7,8-tetrahydropteridin-2-yl)-N-(3-(3-(2,6-dioxopiperidin-3-yl)benzofuran-5-yl)prop-2-yn-1-yl)picolinamide]
> 80%	1 to 9.9 nM	> 1000 nM	< 20%	Cc1cc2c(N3CCCc4nc(-c5ccc(C(=O)NCC#Cc6ccc7occ(C8CCC(=O)NC8=O)c7c6)nc5)ccc43)cc(C3CCOCC3)cc2n(C)c1=O (centres unmarked) [Example B127, 5-(5-(1,3-dimethyl-2-oxo-7-(tetrahydro-2H-pyran-4-yl)-1,2-dihydroquinolin-5-yl)-5,6,7,8-tetrahydro-1,5-naphthyridin-2-yl)-N-(3-(3-(2,6-dioxopiperidin-3-yl)benzofuran-5-yl)prop-2-yn-1-yl)picolinamide]
60 to 79%	1 to 9.9 nM	> 1000 nM	< 20%	Cc1cc2c(N3CCCc4nc(-c5ccc(C(=O)NCC#Cc6cc7c(C8CCC(=O)NC8=O)nccc7n6C)nc5)ncc43)cc(C3CCOCC3)cc2n(C)c1=O (centres unmarked) [Example B136, 5-(5-(1,3-dimethyl-2-oxo-7-(tetrahydro-2H-pyran-4-yl)-1,2-dihydroquinolin-5-yl)-5,6,7,8-tetrahydropyrido[3,2-d]pyrimidin-2-yl)-N-(3-(4-(2,6-dioxopiperidin-3-yl)-1-methyl-1H-pyrrolo[3,2-c]pyridin-2-yl)prop-2-yn-1-yl) picolinamide]
